{"source": "ChEMBL document CHEMBL5385851", "about": "“Natural quinazolinones: From a treasure house to promising anticancer leads” (Eur J Med Chem, 2023)", "key": {"HCT-116 [1]": {"test_system": "HCT-116", "test": "Cytotoxicity against human HCT-116 cells assessed as reduction in cell growth by MTT based colorimetric assay", "format": "functional"}, "A549 [2]": {"test_system": "A549", "test": "Cytotoxicity against human A549 cells assessed as reduction in cell viability incubated for 24 hrs by MTT based colorimetric assay", "format": "functional", "details": "A549, 24 h"}, "HepG2 [3]": {"test_system": "HepG2", "test": "Cytotoxicity against human HepG2 cells assessed as reduction in cell growth by MTT based colorimetric assay", "format": "functional"}, "A-375 [4]": {"test_system": "A-375", "test": "Cytotoxicity against human A-375 cells assessed as reduction in cell growth by MTT based colorimetric assay", "format": "functional"}, "HepG2 [5]": {"test_system": "HepG2", "test": "Antiproliferative activity against human HepG2 cells assessed as reduction in cell viability incubated for 72 hrs by CCK-8 assay", "format": "functional, cell-based", "details": "HepG2, 72 h"}, "A549 [6]": {"test_system": "A549", "test": "Antiproliferative activity against human A549 cells assessed as reduction in cell viability incubated for 48 hrs by MTT assay", "format": "functional, cell-based", "details": "A549, 48 h"}, "MCF7 [7]": {"test_system": "MCF7", "test": "Antiproliferative activity against human MCF7 cells assessed as reduction in cell viability incubated for 48 hrs by MTT assay", "format": "functional, cell-based", "details": "MCF7, 48 h"}, "[8]": {"test": "Antiproliferative activity against human U373 cells assessed as inhibition of cell growth measured after 72 hrs by CTG assay", "format": "functional, cell-based", "details": "U373 MG"}, "A549 [9]": {"test_system": "A549", "test": "Antiproliferative activity against human A549 cells assessed as cell growth inhibition", "format": "functional, cell-based"}, "SK-MEL-28": {"test_system": "SK-MEL-28", "test": "Cytotoxicity against human SK-MEL-28 cells assessed as inhibition of cell growth incubated for 72 hrs by MTT assay", "format": "functional, cell-based", "details": "SK-MEL-28, 72 h"}, "[10]": {"molecular_target": "Tryptophan 2,3-dioxygenase (Homo sapiens, UniProt P48775)", "sequence (P48775 whole entry)": "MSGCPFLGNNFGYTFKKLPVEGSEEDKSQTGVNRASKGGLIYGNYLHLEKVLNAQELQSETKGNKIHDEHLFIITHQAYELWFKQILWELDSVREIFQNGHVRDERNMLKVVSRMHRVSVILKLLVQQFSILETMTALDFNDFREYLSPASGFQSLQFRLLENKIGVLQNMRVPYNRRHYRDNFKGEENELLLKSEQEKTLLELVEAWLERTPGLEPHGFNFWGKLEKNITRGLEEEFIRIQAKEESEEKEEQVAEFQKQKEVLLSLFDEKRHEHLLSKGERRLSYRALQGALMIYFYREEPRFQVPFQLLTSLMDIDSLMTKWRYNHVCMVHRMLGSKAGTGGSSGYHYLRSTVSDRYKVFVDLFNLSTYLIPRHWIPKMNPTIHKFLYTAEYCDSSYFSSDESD", "test": "Inhibition of TDO (unknown origin) expressed in HEK293 cells", "format": "cell-based"}, "[11]": {"molecular_target": "Indoleamine 2,3-dioxygenase 1 (Homo sapiens, UniProt P14902)", "sequence (P14902 whole entry)": "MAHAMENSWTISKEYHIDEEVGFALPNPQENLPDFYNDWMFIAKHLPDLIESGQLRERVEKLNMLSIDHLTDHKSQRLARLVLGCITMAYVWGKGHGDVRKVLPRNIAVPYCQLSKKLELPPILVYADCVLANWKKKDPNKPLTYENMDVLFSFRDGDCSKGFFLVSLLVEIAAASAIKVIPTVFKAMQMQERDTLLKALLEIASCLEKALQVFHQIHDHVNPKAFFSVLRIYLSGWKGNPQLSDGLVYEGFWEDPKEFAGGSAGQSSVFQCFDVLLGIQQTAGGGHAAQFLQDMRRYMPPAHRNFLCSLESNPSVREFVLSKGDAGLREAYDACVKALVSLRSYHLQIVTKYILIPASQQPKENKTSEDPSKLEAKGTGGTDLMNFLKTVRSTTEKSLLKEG", "test": "Inhibition of IDO1 in human HeLa cells", "format": "cell-based"}, "HepG2 [12]": {"test_system": "HepG2", "test": "Cytotoxicity against human HepG2 cells assessed as inhibition of cell growth by MTT based colorimetric analysis", "format": "functional"}, "HCT-116 [13]": {"test_system": "HCT-116", "test": "Cytotoxicity against human HCT-116 cells assessed as inhibition of cell growth by MTT based colorimetric analysis", "format": "functional"}, "HL-60": {"test_system": "HL-60", "test": "Antiproliferative activity against human HL-60 cells assessed as reduction in cell viability incubated for 72 hrs by MTT assay", "format": "functional, cell-based", "details": "HL-60, 72 h"}, "A549 [14]": {"test_system": "A549", "test": "Antiproliferative activity against human A549 cells assessed as reduction in cell growth in presence of doxorubicin by CellTiter-Glo luminescent assay", "format": "functional, cell-based"}, "A-375 [15]": {"test_system": "A-375", "test": "Cytotoxicity against human A-375 cells assessed as inhibition of cell growth by MTT based colorimetric analysis", "format": "functional"}, "SF-268": {"test_system": "SF-268", "test": "Cytotoxicity against human SF-268 cells assessed as reduction in cell viability by MTS assay", "format": "functional, cell-based"}, "NCI-H460": {"test_system": "NCI-H460", "test": "Cytotoxicity against human NCI-H460 cells assessed as reduction in cell viability by MTS assay", "format": "functional, cell-based"}, "MCF7 [16]": {"test_system": "MCF7", "test": "Cytotoxicity against human MCF7 cells assessed as reduction in cell viability by MTS assay", "format": "functional, cell-based"}, "Bel-7402": {"test_system": "Bel-7402", "test": "Antiproliferative activity against human Bel-7402 cells assessed as inhibition of cell growth measured after 48 hrs by CCK-8 assay", "format": "functional, cell-based", "details": "Bel-7402, 48 h"}, "P388": {"test_system": "P388", "test": "Cytotoxicity against mouse P388 cells assessed as reduction in cell growth", "format": "functional", "details": "read-out: ED50 (the source's name)"}, "HCT-116 [17]": {"test_system": "HCT-116", "test": "Antiproliferative activity against human HCT-116 cells assessed as reduction in cell growth incubated for 24 hrs by MTT assay", "format": "functional, cell-based", "details": "HCT-116, 24 h"}, "MCF7 [18]": {"test_system": "MCF7", "test": "Cytotoxicity against human MCF7 cells assessed as reduction in cell viability measured after 48 hrs by MTT assay", "format": "functional, cell-based", "details": "MCF7, 48 h"}}, "data": [{"smiles": "CC(C)C[C@H]1NC(=O)[C@@H](C[C@]2(O)c3ccccc3N3C(=O)[C@@H](C)N[C@H]32)n2c1nc1ccccc1c2=O", "values": [{"measurement": "IC50", "setting": "HCT-116 [1]", "value": 203, "unit": "µM"}, {"measurement": "IC50", "setting": "A549 [2]", "value": 540, "unit": "nM"}, {"measurement": "IC50", "setting": "HepG2 [3]", "value": 76, "unit": "µM"}, {"measurement": "IC50", "setting": "A-375 [4]", "value": 160, "unit": "µM"}]}, {"smiles": "C[C@H]1C(=O)N2c3ccccc3[C@@]3(C[C@@H](n4cnc5ccccc5c4=O)C(=O)O3)[C@@H]2N1O", "values": [{"measurement": "IC50", "setting": "HepG2 [5]", "value": 235, "unit": "µM"}, {"measurement": "IC50", "setting": "A549 [6]", "value": 540, "unit": "nM"}, {"measurement": "IC50", "setting": "MCF7 [7]", "value": "> 100", "unit": "µM"}, {"measurement": "IC50", "setting": "[8]", "value": "> 100", "unit": "µM"}, {"measurement": "IC50", "setting": "A549 [9]", "value": "> 100", "unit": "µM"}, {"measurement": "IC50", "setting": "SK-MEL-28", "value": "> 100", "unit": "µM"}]}, {"smiles": "O=C1c2nc3ccc(CCN4CCOCC4)cc3c(=O)n2C2C=CC(F)=CC12", "note": "(centres undefined)", "values": [{"measurement": "IC50", "setting": "[10]", "value": 70, "unit": "nM"}, {"measurement": "IC50", "setting": "[11]", "value": 20, "unit": "nM"}]}, {"smiles": "CC1(C)C(=O)N2c3ccccc3[C@@]3(C[C@@H](n4cnc5ccccc5c4=O)C(=O)O3)[C@@H]2N1O", "values": [{"measurement": "IC50", "setting": "HepG2 [5]", "value": 235, "unit": "µM"}, {"measurement": "IC50", "setting": "MCF7 [7]", "value": "> 100", "unit": "µM"}, {"measurement": "IC50", "setting": "[8]", "value": "> 100", "unit": "µM"}, {"measurement": "IC50", "setting": "A549 [9]", "value": "> 100", "unit": "µM"}, {"measurement": "IC50", "setting": "SK-MEL-28", "value": "> 100", "unit": "µM"}]}, {"smiles": "O=C1O[C@]2(C[C@H]1n1cnc3ccccc3c1=O)C(=O)Nc1ccccc12", "values": [{"measurement": "IC50", "setting": "HepG2 [5]", "value": 235, "unit": "µM"}, {"measurement": "IC50", "setting": "MCF7 [7]", "value": "> 100", "unit": "µM"}, {"measurement": "IC50", "setting": "[8]", "value": "> 100", "unit": "µM"}, {"measurement": "IC50", "setting": "A549 [9]", "value": "> 100", "unit": "µM"}, {"measurement": "IC50", "setting": "SK-MEL-28", "value": "> 100", "unit": "µM"}]}, {"smiles": "CCOC(=O)/C=C/c1ccc2nc3n(c(=O)c2c1)C1C=CC(F)=CC1C3=O", "note": "(centres undefined)", "values": [{"measurement": "IC50", "setting": "[11]", "value": 20, "unit": "nM"}]}, {"smiles": "CC(C)C[C@H]1NC(=O)[C@@H](C[C@]2(O)c3ccccc3N3C(=O)C(C)(C)N[C@H]32)n2c1nc1ccccc1c2=O", "values": [{"measurement": "IC50", "setting": "HepG2 [12]", "value": 24, "unit": "µM"}, {"measurement": "IC50", "setting": "HCT-116 [13]", "value": 86, "unit": "µM"}, {"measurement": "IC50", "setting": "HL-60", "value": 52, "unit": "µg/mL"}, {"measurement": "IC50", "setting": "A549 [14]", "value": 540, "unit": "nM"}, {"measurement": "IC50", "setting": "A-375 [15]", "value": 75, "unit": "µM"}]}, {"smiles": "O=C1OCC23Nc4ccccc4C(=O)N2c2ccccc2C13", "note": "(centres undefined)", "values": [{"measurement": "IC50", "setting": "SF-268", "value": "> 50", "unit": "µM"}, {"measurement": "IC50", "setting": "NCI-H460", "value": "> 50", "unit": "µM"}, {"measurement": "IC50", "setting": "MCF7 [16]", "value": "> 50", "unit": "µM"}]}, {"smiles": "CC(C)/C=C1\\NC(=O)[C@H](CCC(N)=O)n2c1nc1ccccc1c2=O", "note": "[AURANTIOMIDE C]", "values": [{"measurement": "IC50", "setting": "Bel-7402", "value": 62, "unit": "µg/mL"}]}, {"smiles": "O=C1/C(=c2\\c3ccccc3n3c(=O)c4ccccc4nc23)Nc2ccccc21", "note": "[CANDIDINE]", "values": [{"measurement": "IC50", "setting": "SF-268", "value": "> 50", "unit": "µM"}, {"measurement": "IC50", "setting": "NCI-H460", "value": "> 50", "unit": "µM"}, {"measurement": "IC50", "setting": "MCF7 [16]", "value": "> 50", "unit": "µM"}]}, {"smiles": "C[C@@H]1N[C@H]2N(C1=O)c1ccccc1[C@@]2(O)C[C@@H]1C(=O)N[C@@H](C)c2nc3ccccc3c(=O)n21", "note": "[FUMIQUINAZOLINE A]", "values": [{"measurement": "EC50", "setting": "P388", "value": 6.1, "unit": "µg/mL"}]}, {"smiles": "C[C@@H]1NC(=O)[C@@H](Cc2c[nH]c3ccccc23)n2c1nc1ccccc1c2=O", "note": "[FUMIQUINAZOLINE F]", "values": [{"measurement": "EC50", "setting": "P388", "value": 14.6, "unit": "µg/mL"}]}, {"smiles": "C[C@H]1NC(=O)[C@@H](Cc2c[nH]c3ccccc23)n2c1nc1ccccc1c2=O", "note": "[FUMIQUINAZOLINE G]", "values": [{"measurement": "EC50", "setting": "P388", "value": 17.7, "unit": "µg/mL"}]}, {"smiles": "C[C@@H]1N[C@@H]2N(C1=O)c1ccccc1[C@@]21C[C@@H](n2cnc3ccccc3c2=O)C(=O)O1", "note": "[FUMITREMORGIN F]", "values": [{"measurement": "IC50", "setting": "HepG2 [5]", "value": 235, "unit": "µM"}, {"measurement": "IC50", "setting": "MCF7 [7]", "value": "> 100", "unit": "µM"}, {"measurement": "IC50", "setting": "[8]", "value": 90, "unit": "µM"}, {"measurement": "IC50", "setting": "A549 [9]", "value": "> 100", "unit": "µM"}, {"measurement": "IC50", "setting": "SK-MEL-28", "value": "> 100", "unit": "µM"}, {"measurement": "IC50", "setting": "HCT-116 [17]", "value": 202, "unit": "µM"}]}, {"smiles": "O=C1c2c(O)cccc2-n2c1nc1ccccc1c2=O", "note": "[PHAITANTHRIN C]", "values": [{"measurement": "IC50", "setting": "SF-268", "value": "> 50", "unit": "µM"}, {"measurement": "IC50", "setting": "NCI-H460", "value": "> 50", "unit": "µM"}, {"measurement": "IC50", "setting": "MCF7 [16]", "value": "> 50", "unit": "µM"}]}, {"smiles": "COC(=O)c1c2ccccc2n2c(=O)c3ccccc3[nH]c12", "note": "[PHAITANTHRIN E]", "values": [{"measurement": "IC50", "setting": "SF-268", "value": "> 50", "unit": "µM"}, {"measurement": "IC50", "setting": "NCI-H460", "value": "> 50", "unit": "µM"}, {"measurement": "IC50", "setting": "MCF7 [16]", "value": "> 50", "unit": "µM"}]}, {"smiles": "COC(=O)CC1(O)c2ccccc2-n2c1nc1ccccc1c2=O", "note": "(centres undefined) [PHAITANTHRINS B]", "values": [{"measurement": "IC50", "setting": "SF-268", "value": "> 50", "unit": "µM"}, {"measurement": "IC50", "setting": "NCI-H460", "value": "> 50", "unit": "µM"}, {"measurement": "IC50", "setting": "MCF7 [16]", "value": "> 50", "unit": "µM"}]}, {"smiles": "CC(=O)O[C@H](c1nc2ccccc2c(=O)n1[C@@H]1C[C@]2(OC1=O)c1ccccc1N1C(=O)C(C)(C)N(O)[C@H]12)C(C)C", "note": "[TRYPTOQUIVALINE]", "values": [{"measurement": "IC50", "setting": "MCF7 [18]", "value": 72, "unit": "µM"}]}]}
